Test results taken from ChEMBL document CHEMBL5390249, “Analysis of structure-activity relationship of indol-3-yl-N-phenylcarbamic amides as potent STING inhibitors” (Bioorg Med Chem, 2023).
Calls of active or inactive are those of the source. The rule behind the calls is not given here.

System: Detroit 551
Test: Cytotoxicity against human Detroit 551 cells assessed as reduction in cell viability by MTS assay
Type: toxicity, cell-based

Row | SMILES | Activity
1 | O=C(Nc1ccc(OC(F)(F)F)cc1)Nc1c[nH]c2ccccc12 | Non-Toxic
2 | O=C(Nc1ccc(Cl)cc1)Nc1c[nH]c2ccccc12 | Non-Toxic
3 | O=C(Nc1ccc(C(F)(F)F)cc1)Nc1c[nH]c2ccccc12 | Non-Toxic
4 | CCc1ccc(NC(=O)Nc2c[nH]c3ccccc23)cc1 | Non-Toxic
5 | CC(C)c1ccc(NC(=O)Nc2c[nH]c3ccccc23)cc1 | Non-Toxic
6 | Cc1ccc(NC(=O)Nc2c[nH]c3ccccc23)cc1Cl | Non-Toxic

Biological target: Stimulator of interferon genes protein (Homo sapiens) (UniProt Q86WV6)
Sequence (Q86WV6 whole entry): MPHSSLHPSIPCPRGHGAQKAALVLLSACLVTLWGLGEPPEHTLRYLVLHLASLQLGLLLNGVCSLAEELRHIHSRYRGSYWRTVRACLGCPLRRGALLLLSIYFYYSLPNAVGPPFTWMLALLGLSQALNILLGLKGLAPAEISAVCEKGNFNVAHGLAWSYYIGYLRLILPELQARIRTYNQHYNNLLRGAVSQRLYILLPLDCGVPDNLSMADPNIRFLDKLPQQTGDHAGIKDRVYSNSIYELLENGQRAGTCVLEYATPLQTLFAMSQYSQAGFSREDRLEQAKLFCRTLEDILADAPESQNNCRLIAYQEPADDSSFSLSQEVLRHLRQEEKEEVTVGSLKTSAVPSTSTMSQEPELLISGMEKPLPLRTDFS
Test: Inhibition of STING in human THP1-Dual KI-hSTING-R232 cells assessed as cGAMP-induced IRF luciferase expression at 1 uM incubated for 2 hrs by QUANTI-Luc reagent based luciferase reporter assay
Type: cell-based

Row | SMILES | inhibition
7 | O=C(Nc1cccc(Cl)c1)Nc1c[nH]c2ccccc12 | Active
8 | Cc1ccccc1NC(=O)Nc1c[nH]c2ccccc12 | inactive
9 | CN(C(=O)Nc1c[nH]c2ccccc12)c1ccccc1 | inactive
10 | Cc1cccc(NC(=O)Nc2c[nH]c3ccccc23)c1C | inactive
11 | CCc1ccc(NC(=O)Nc2cn(C)c3ccccc23)cc1 | inactive
12 | Cn1cc(NC(=O)Nc2ccc(C(N)=O)cc2)c2ccccc21 | inactive
13 | COc1ccc(NC(=O)Nc2c[nH]c3ccccc23)cc1 | inactive
14 | Cn1cc(NC(=O)Nc2ccc(F)c(F)c2)c2ccccc21 | inactive
15 | CCc1ccccc1NC(=O)Nc1c[nH]c2ccccc12 | inactive
16 | NC(=O)c1ccc(NC(=O)Nc2c[nH]c3ccccc23)cc1 | inactive
17 | CC(=O)c1ccc(NC(=O)Nc2cn(C)c3ccccc23)cc1 | inactive
18 | O=C(Nc1c[nH]c2ccccc12)N1Cc2ccccc2C1 | inactive
19 | Cc1ccc(NC(=O)Nc2c[nH]c3ccccc23)c(C)c1 | inactive
20 | Cc1cccc(NC(=O)Nc2c[nH]c3ccccc23)c1 | Active
21 | Cn1cc(NC(=O)Nc2ccc(OC(F)(F)F)cc2)c2ccccc21 | inactive
22 | O=C(Nc1cccc(F)c1)Nc1c[nH]c2ccccc12 | Active
23 | COc1cccc(NC(=O)Nc2c[nH]c3ccccc23)c1 | Active
24 | Cn1cc(NC(=O)Nc2ccc(F)c(Cl)c2)c2ccccc21 | inactive
25 | CN(C)c1ccc(NC(=O)Nc2c[nH]c3ccccc23)cc1 | inactive
26 | O=C(Nc1ccc2c(c1)OCCO2)Nc1c[nH]c2ccccc12 | inactive
